Each structure is given as a SMILES string.

The values that follow come from US7267715B2, “Ink and ink set” (Fujifilm Corporation, priority 2003, dated 2007).

The nature of the data set: Oxidation potential by cyclic voltammetry. The note with it: test method of the specification (dimethylformamide, tetrapropylammonium perchlorate). The data set is classed as physicochemical. The method, then: More specifically, a test sample is dissolved to a concentration of 1×10^−6 to 1×10^−4 mol/liter in a solvent such as dimethylformamide or acetonitrile containing a supporting electrolyte such as sodium perchlorate or tetrapropylammonium perchlorate and the oxidation potential is measured as a value to SCE (saturated calomel electrode) using a cyclic voltammetry. This value sometimes deviates on the order of tens of millivolt due to the effect of liquid junction potential, liquid resistance of sample solution, or the like, however, the reproducibility of potential can be guaranteed by adding a standard sample (for example, hydroquinone). In order to univocally specify the potential, in the present invention, the value (SCE standard) measured in a dimethylformamide (concentration of dye: 0.001·moldm^−3) containing 0.1 mol·dm^−3 of tetrapropylammonium perchlorate as the supporting electrolyte is used as the oxidation potential of the dye. In the case of a water-soluble dye, the dye is sometimes hardly dissolved directly in N,N-dimethylformamide. In such a case, the oxidation potential is measured after dissolving the dye by using water in a small amount as much as possible and then diluting it with N,N-dimethylformamide to have a water content of 2% or less.
In the case of `CC(C)(C)c1nn(-c2nc(Nc3cc(C(=O)[O-])cc(C(=O)[O-])c3)nc(Nc3cc(C(=O)[O-])cc(C(=O)[O-])c3)n2)c(N)c1/N=N/c1ncns1.[Na+].[Na+].[Na+].[Na+]` [Y-2], the oxidation potential is on record as 1.25 V (vs SCE).

For `CC(C)CSc1nnc(/N=N/c2c(C(C)(C)C)nn(-c3nc(Nc4cc(C(=O)[O-])cc(C(=O)[O-])c4)nc(Nc4cc(C(=O)[O-])cc(C(=O)[O-])c4)n3)c2N)s1.[K+].[K+].[K+].[K+]` [Y-3], the oxidation potential was 1.22 V (vs SCE).

`Cc1c(C#N)c(Nc2ccc(S(=O)(=O)[O-])cc2)nc(Nc2ccc(S(=O)(=O)[O-])cc2)c1N=Nc1sc(N=Nc2cc(C(=O)[O-])cc(C(=O)[O-])c2)cc1C#N.[Li+].[Li+].[Li+].[Li+]` [BK-4]: the oxidation potential is 1.32 V (vs SCE).

In the case of `Cc1cc(C)c(S(=O)(=O)[O-])c(C)c1Nc1nc(N(c2nc3ccc(S(=O)(=O)[O-])cc3s2)c2c(C)cc(C)c(S(=O)(=O)O)c2C)ccc1/N=N/c1c(C#N)c(C(C)(C)C)nn1-c1nc2ccc(S(=O)(=O)[O-])cc2s1.[K+].[K+].[Na+]` [M-3], the oxidation potential is reported as 1.29 V (vs SCE).
